Measurements reported in patent US9259389B2, “Pharmaceutical oral dosage form containing a synthetic oligosaccharide” (ENDOTIS PHARMA, priority 2009, dated 2016).
Where two headings read alike, the source gives them in different places.

Assay: Bioavailability after Direct Intra-Duodenal Infusion (DIDI) administration in rat
Type: in vivo
Conditions: for bioavailability: female, Wistar Han, plasma, other: direct intra-duodenal infusion (DIDI), read-out: DIDI (bioavailability F after Direct Intra-Duodenal Infusion)
Source text: Pharmacokinetic Study after Direct Intra-Duodenal Injection:
Direct Intra-Duodenal Infusion (DIDI) has been performed in fasted female Wistar Han rats (175-250 g) to determine the ability of oligosaccharide compounds, in a formulation according to the present invention, to cross the intestinal barrier.
Animals were anesthetized with isoflurane gas in a closed induction chamber and held under anesthesia (3% isoflurane and 2.4 l/min rate) until sacrifice at the end of the experiment. After shaving, a laparotomy was performed and the duodenum exposed. A small pore was created upper the bile duct into the duodenum using a high temperature cautery fine tip. A flexible catheter was inserted into the duodenal lumen through the hole and the upper part of the duodenum was closed and the catheter immobilized by clipping with a forceps. A syringe containing the formulation according to the present invention and diluted as indicated below was placed onto the flexible catheter and the syringe's plunger was slowly depressed releasing the material into the duodenum. Immediately after, a 0.9% NaCl solution was injected (50 μl) to ensure complete compound administration. At this step, peritoneal cavity and skin of the rats were closed using silk suture.
The dose of the oligosaccharide compound according to the present invention to be administrated is 2 mg/kg of body weight or 4 mg/kg of body weight. Therefore, each rat received the quantity of the formulation corresponding to this dosage (i.e. for the dose of 2 mg/kg of body weight, 0.4 mg per rat of 200 g, corresponding to 40 mg of formulation for a formulation containing 1% by weight of the oligosaccharide), diluted extemporaneously at ambient temperature in water for injection with a total volume of administration of 500 μl.
Sometimes, it can be advantageous to first heat the formulation to 37° C. for 15 min under agitation to optimize dilution of the formulation.
Blood samples were collected over a certain period of time (in general 0.25; 0.5; 1; 1.5; 2; 2.5 h) and plasma analyzed as described below.
Quantification of the Compounds in Plasma:
Plasma concentration of the synthetic oligosaccharide (μg compound/mL plasma) was determined using a bioassay based on the factor Xa inhibitory activity of the compounds in the presence of antithrombin (AT). First, AT was added in excess to the plasma sample, allowing 1/1 oligosaccharide/AT complex formation. Factor Xa was then added in excess, and remaining active factor Xa was determined by spectrophotometry at 405 nm using a chromogenic reagent as a substrate. A dose-response curve was established for each compound to be quantified in rat plasma.
Pharmacokinetic Study after Intravenous Administration: […]

## CO[C@H]1O[C@H](COS(=O)(=O)O)[C@@H](O[C@@H]2O[C@@H](C(=O)O)[C@@H](O[C@H]3O[C@H](COS(=O)(=O)O)[C@@H](O[C@@H]4O[C@H](C(=O)O)[C@@H](O[C@H]5O[C@H](COS(=O)(=O)O)[C@@H](O)[C@H](O)[C@H]5NS(=O)(=O)O)[C@H](O)[C@H]4O)[C@H](OS(=O)(=O)O)[C@H]3NS(=O)(=O)O)[C@H](O)[C@H]2OS(=O)(=O)O)[C@H](O)[C@H]1NS(=O)(=O)O [Fondaparinux, reference compound]
active: sodium fondaparinux, dose delivered 2 mg/kg, AUC0-2 DIDI vs intravenous
  bioavailability: 3%

## Fondaparinux Benzathine
active: Fondaparinux Benzathine, 2 mg/kg, AUC0-2 DIDI vs intravenous
  DIDI (bioavailability F after Direct Intra-Duodenal Infusion): 2 ± 1%

## CCC1(C(=O)[O-])OC(OC2C(COS(=O)(=O)[O-])OC(OC3COC(OC4C(COS(=O)(=O)[O-])OC(OC)C(OS(=O)(=O)[O-])C4OC)[C@H](OCC(=O)[O-])C3OC)C(OS(=O)(=O)[O-])C2OS(=O)(=O)[O-])C(OC)C(OC)C1OC1OC(COS(=O)(=O)[O-])C(OCCOCCOCCOCCN)C(OC)C1OC.[Na+].[Na+].[Na+].[Na+].[Na+].[Na+].[Na+].[Na+] (stereo partly shown) [Sodium salt of 147 without formulation]
active: sodium salt of compound 147, AUC0-2 DIDI vs intravenous
  bioavailability: 1 ± 10%

## CCCCOC1C(COS(=O)(=O)[O-])OC(OC2C(OC)C(OC)C(OC3C(COS(=O)(=O)[O-])OC(OC4COC(OC5C(COS(=O)(=O)[O-])OC(OC)C(OS(=O)(=O)[O-])C5O)[C@H](OCC(=O)[O-])C4OC)C(OS(=O)(=O)[O-])C3OS(=O)(=O)[O-])OC2(CC)C(=O)[O-])C(N)C1OCCCC.[Na+].[Na+].[Na+].[Na+].[Na+].[Na+].[Na+].[Na+] (stereo partly shown) [Sodium salt of 122 without formulation]
active: sodium salt of compound 122, AUC0-2 DIDI vs intravenous
  bioavailability: 2.5 ± 1%
